In patent US20080182830A1, “Agent for Treatment and Prevention of Endometriosis and Uterine Adenomyosis” (priority 2005, published 2008):

Columns and labels:
[1] = test system: uterine adenomyosis; assay: Therapy of uterine adenomyosis (1), single patient; assay type: in vivo, human
Source text: A patient having uterine adenomyosis was subjected to the treatment using the therapeutic agent according to the present invention. The patient had been subjected to injection of Leuplin, which was a therapeutic drug for endometriosis at one time per a month continuously for six months. However, the disease was not cured. Then, the uterus was enlarged to have a size corresponding to the third month of pregnancy, and menstrual pain was severe, and a menstrual bleeding was abundant. Moreover, CA125 in the blood indicated 441 units (the normal units are 35 units or less) and CA602 indicated 1025 units (the normal value is 63 units or less). The indicated values were abnormally high.
The menstrual pain and the hypermenorrhea disappeared. Moreover, CA125 in the blood was reduced to be 38 units and CA602 was reduced to 53 units after 60 days from the initiation of the administration. Accordingly, it can be said that the uterine adenomyosis was fully cured.

[2] = test system: deep endometriosis; assay: Therapy of deep endometriosis (1), single patient, vaginal rings; assay type: in vivo, human
Source text: A patient suffered from intensive menstrual pain by deep endometriosis was subjected to the treatment using the therapeutic agent according to the present invention.

[3] = test system: ovarian chocolate cyst; assay: Therapy of ovarian chocolate cyst, injection into aspirated cyst; assay type: in vivo, human
Source text: A patient having ovarian chocolate cyst was subjected to the treatment using the therapeutic agent according to the present invention. In this patient, by transvaginal ultrasonic diagnosis, the cyst having a diameter of 6 cm was recognized in Cul-de-Sac. Moreover, CA125 in the blood indicated 1522 units and CA602 indicated 352 units (the normal value is 63 units or less). The indicated values were abnormally high. It was confirmed that the distance from the vaginal fornix to cyst was within 1 cm, and under observation with a transvaginal ultrasonography, the cyst content was punctured with a needle from the posterior vaginal fornix and was aspirated. Then, the 2 mL ethanol solution containing 2 mg of 3-ethyl pyridine was injected. As a result, the ovarian chocolate cyst disappeared four weeks after the injection. The uterus was scaled down to 2.5 cm. The menstrual pain disappeared. Moreover, CA125 in the blood was lowered to be 52 units and CA602 was lowered to be 61 units.
In addition to the above case, patients of other 12 cases having chocolate cysts were subjected to the following treatment. That is, under a transvaginal ultrasonic guide, the ovarian chocolate cyst having a distance within 10 mm from the posterior vaginal fornix was punctured and the cyst content was aspirated and then the 3 mL ethyl ether solution containing 3 mg of 3-ethylpyridine was injected into the cyst. As a result, in all 12 cases, the ovarian chocolate cyst was scaled down, and at the same time, the menstrual pain disappeared in eight cases, and, improved in three cases. […] In addition, existence of malignant cells in the aspirated cystic content was denied by cytodiagnosis.

[4] = test system: uterine adenomyosis; assay: Therapy of uterine adenomyosis (2), patient series with intrauterine devices; assay type: in vivo, human
Procedure: An intrauterine device (IUD) containing 600 μg to 900 μg of 3-ethylpyridine was inserted for 6 months […] of each of patients (12 cases) having uterine adenomyosis recurring after the nasal administration or injection of GnRH analogs.

[5] = test system: deep endometriosis; assay: Therapy of deep endometriosis (2), 18 cases, vaginal ring; assay type: in vivo, human
Procedure: A vaginal ring containing 8 to 10 mg of 3-ethylpyridine was inserted into the vagina of each of deep endometriosis patients (18 cases) for 3 months. As a result, disappearance of pressure pain and induration in Cul-de-Sac was recognized in 9 cases, and improvement thereof was recognized in 7 cases, and nullity thereof was recognized in 2 cases. The menstrual pain disappeared in 4 cases, and improved in 13 cases and null in only one case. A coital pain disappeared in 10 cases and a defecation pain was improved in 7 cases.

[6] = test system: chorioallantoic membrane of chicken; details: Lin J. et al. 2002; G. Melkonian et al. 2004; cited from earlier work
[7] = test system: vaginal endometriosis; assay: Therapy of vaginal endometriosis, vaginal ring; assay type: in vivo, human
Procedure: A patient having endometriosis recurred after operation of the left ovary and Cul-de-Sac endometriosis was subjected to the treatment using the therapeutic agent according to the present invention. In the patient with an induration about 7 cm×about 5 cm in a deep right posterior fornix of the vagina. […] Moreover, menstrual pain, extramenstrual pain, severe lower abdominal pain, defecation pain, and coital pain were recognized. Accordingly, the above-described doughnut-type ring containing 9 mg 3-ethylpyridine was inserted into the posterior vaginal fornix. As a result, four weeks after the insertion, the coital pain, the defecation pain, the extramenstrual lower abdominal pain and low back pain disappeared, and the menstrual pain was reduced. The induration at the right posterior fornix of the vagina was scaled down to 4 cm×2 cm. Then, by continuous treatment, the induration at the right posterior fornix of the vagina was further scaled down to have 2 cm×1 cm. In addition to the above case, with respect to each of patients of other two cases having endometriosis, the pathological endometriosis was confirmed by biopsy and then, a vaginal ring containing 8 to 10 mg of 3-ethylpyridine was inserted into the vagina.

[8] = IUD-type device containing 825 μg
[9] = IUD-type device containing 825 μg inserted into the uterus
[10] = vaginal ring 10 mg 3-ethylpyridine, after the danazol ring
[11] = other 12 cases, 3 mL ethyl ether solution containing 3 mg
[12] = single patient, 2 mL ethanol solution containing 2 mg injected
[13] = IUD containing 600 μg to 900 μg, 6 months, 12 cases
[14] = vaginal ring 8 to 10 mg for 3 months
[15] = doughnut-type ring 9 mg, four weeks after insertion
[16] = other two cases, vaginal ring containing 8 to 10 mg
[17] = vaginal ring 1,000 mg danazol for 6 months

**Q.** With `CCc1cccnc1` [3-ethylpyridine] as the compound, how does the “CA125 in the blood” value ([1]; IUD-type device 825 μg, after 60 days from initiation, before 441 units, normal 35 units or less) read?
**A.** 38 units

**Q.** What about the “CA602 in the blood” value ([1]; IUD-type device 825 μg, after 60 days from initiation, before 1025 units, normal 63 units or less) of the same compound?
**A.** 53 units

**Q.** And the “recurrence after suspension of the treatment” value [1, 8]?
**A.** not recognized

**Q.** And the uterine adenomyosis outcome [1, 8]?
**A.** fully cured

**Q.** What about the hypermenorrhea [1, 9] of the same compound?
**A.** disappeared

**Q.** And the menstrual pain [1, 9]?
**A.** disappeared

**Q.** And the “size of the uterine corpus” value ([1]; IUD-type device containing 825 μg inserted into the uterus, six months after insertion, before: size of third month of pregnancy)?
**A.** scaled down to a normal size

**Q.** And the “induration in Cul-de-Sac” value [2, 10]?
**A.** not scaled down

**Q.** And the menstrual pain [2, 10]?
**A.** further decreased

**Q.** What about the “CA125 in the blood” value ([2]; vaginal ring containing 10 mg 3-ethylpyridine, after the danazol ring, in 3 months, from 620 units) of the same compound?
**A.** 250 units

**Q.** What about the “cyst enlarged again after the six months” value [3, 11] of the same compound?
**A.** three

**Q.** And the menstrual pain disappeared [3, 11]?
**A.** eight

**Q.** What about the menstrual pain improved [3, 11] of the same compound?
**A.** three

**Q.** And the “ovarian chocolate cyst scaled down” value ([3]; other 12 cases, 3 mL ethyl ether solution containing 3 mg injected into the cyst)?
**A.** 12 cases

**Q.** What about the “CA602 in the blood” value ([3]; single patient, 2 mg injected, before 352 units, normal 63 units or less) of the same compound?
**A.** 61 units

**Q.** What about the “CA125 in the blood” value ([3]; single patient, 2 mg injected, before 1522 units) of the same compound?
**A.** 52 units

**Q.** And the menstrual pain [3, 12]?
**A.** disappeared

**Q.** And the “uterus scaled down to” value [3, 12]?
**A.** 2.5 cm

**Q.** And the ovarian chocolate cyst ([3]; single patient, 2 mL ethanol solution containing 2 mg injected after aspiration, four weeks after injection, cyst diameter 6 cm before)?
**A.** disappeared

**Q.** And the “ovary chocolate cyst outcome after repeated puncture and injection” value ([3]; the three cases enlarged again after six months)?
**A.** could be cured

**Q.** What about the menstrual pain disappeared [4, 13] of the same compound?
**A.** eight

**Q.** What about the menstrual pain improved [4, 13] of the same compound?
**A.** four

**Q.** What about the therapeutic effect [4, 13] of the same compound?
**A.** in all the cases, therapeutic effect was recognized

**Q.** What about the hypermenorrhea disappeared ([4]; IUD containing 600 μg to 900 μg, 6 months, 12 cases recurring after GnRH analogs) of the same compound?
**A.** nine

**Q.** And the coital pain disappeared [5, 14]?
**A.** 10 cases

**Q.** And the defecation pain improved [5, 14]?
**A.** 7 cases

**Q.** And the “improvement of pressure pain and induration in Cul-de-Sac” value [5, 14]?
**A.** 7 cases

**Q.** What about the menstrual pain disappeared [5, 14] of the same compound?
**A.** 4 cases

**Q.** What about the menstrual pain improved [5, 14] of the same compound?
**A.** 13 cases

**Q.** And the menstrual pain null [5, 14]?
**A.** one

**Q.** And the “nullity (no effect) on pressure pain and induration in Cul-de-Sac” value [5, 14]?
**A.** 2 cases

**Q.** And the “disappearance of pressure pain and induration in Cul-de-Sac” value ([5]; vaginal ring containing 8 to 10 mg for 3 months)?
**A.** 9 cases

**Q.** And the “growth of chorioallantoic membrane of chicken” value [6]?
**A.** inhibits the growth

**Q.** What about the defecation pain [7, 15] of the same compound?
**A.** disappeared

**Q.** What about the “extramenstrual lower abdominal pain and low back pain” value [7, 15] of the same compound?
**A.** disappeared

**Q.** And the menstrual pain [7, 15]?
**A.** reduced

**Q.** What about the “menstrual pain and defecation pain” value [7, 16] of the same compound?
**A.** disappeared in all the cases

**Q.** What about the vaginal endometriosis [7, 16] of the same compound?
**A.** disappeared macroscopically and histologically in all two cases

**Q.** And the coital pain ([7]; patient, doughnut-type ring containing 9 mg in posterior vaginal fornix, four weeks after insertion)?
**A.** disappeared

**Q.** For `CCNC(=O)[C@@H]1CCCN1C(=O)[C@H](CCCNC(=N)N)NC(=O)[C@H](CC(C)C)NC(=O)[C@@H](CC(C)C)NC(=O)[C@H](Cc1ccc(O)cc1)NC(=O)[C@H](CO)NC(=O)[C@H](Cc1c[nH]c2ccccc12)NC(=O)[C@H](Cc1c[nH]cn1)NC(=O)[C@@H]1CCC(=O)N1` [Leuplin, reference compound], which “disease (uterine adenomyosis) outcome” value ([1]; patient, injection one time per month continuously for six months) is on record?
**A.** not cured

**Q.** For `C#C[C@]1(O)CC[C@H]2[C@@H]3CCC4=Cc5oncc5C[C@]4(C)[C@H]3CC[C@@]21C` [danazol, reference compound], which “CA125 in the blood” value ([2]; patient, vaginal ring containing 1,000 mg danazol for 6 months, from 950 units) is on record?
**A.** 620 units

**Q.** And the menstrual pain [2, 17]?
**A.** reduced but not fully cured

**Q.** And the “painful induration in Cul-de-Sac” value [2, 17]?
**A.** not scaled down

**Q.** And the uterine adenomyosis outcome ([4]; earlier treatment with IUDs containing danazol, the 55 cases)?
**A.** not cured
